18 compounds from patent EP4737449A1 (Changchun Genescience Pharmaceutical Co., Ltd., priority 2023, dated 2025) can be followed below.

In one assay the test system is NUGC-3 cells. Description: NUGC-3 cell proliferation assay (CTG, 7 days). The class given is cell-based, human. Here is the method:
The cells were cultured in strict accordance with ATCC requirements.
Cell culture medium: 1640 culture medium, 10% serum, 1% penicillin + streptomycin.
Culture conditions: 37°C, 95% air, 5% carbon dioxide.
Compounds (20 mM) were subjected to gradient dilution in DMSO: 10 gradients, 3-fold dilution, duplicate wells.
Positive and negative controls (100% dimethyl sulfoxide) were prepared.
The compounds that were gradient diluted with DMSO and positive and negative controls (1st and 2nd step), each 75 nL, were transferred to 384-well cell culture plates by Echo550.
The cells were washed twice with PBS, digested with trypsin, and centrifuged for cell counting.
The experiment can only be carried out when the cell viability is above 90%.
The cells were plated into 384-well cell culture plates, with 200 (NUGC-3) cells and 30 µL of culture medium per well.
The 384-well microplate was placed in a cell culture incubator for 7 days.
30 µL of CTG detection reagent was added to the 384-well microplate.
The 384-well microplate was incubated for 30 min at 37°C, 5% carbon dioxide in the dark.
The reading was performed by a multi-functional microplate reader Envision.
% Inhibition is calculated as follows: % Inhibition = 100−(Signalcmpd−SignalAve_BL)/(SignalAve_VC−SignalAve_BL)*100 [formula] • Signalcmpd: Average signal of the compound in the cell plate • Signalave_vc: Average signal of the negative control in the cell plate • Signalave_BL: Average signal of the blank wells in the cell plate
IC50 was calculated by fitting % inhibition and compound concentration logarithmically to a nonlinear regression (dose response - variable slope) using Graphpad 8.0. Table 2 IC50 of selected compounds in NUGC-3 cell proliferation assay

For a further assay, the target named is T1, p53-Y220C mutant protein (Homo sapiens, UniProt P04637, Y220C).
T1 construct: The recombinant Y220C p53 DBD protein with his-tag
Description: In vitro DNA binding activity assay (TR-FRET). The assay is classed as biochemical. The conditions noted are these: concentration required to increase the binding activity of protein to DNA by 50%. Put shortly:
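His-tagged Y220C p53 DBD was equilibrated with compound 60 min at room temperature, then biotin-DNA, anti-6His-Eu and streptavidin-d2 were added and incubated overnight in the dark. TR-FRET 665/615 nm ratio, background-corrected, was expressed as % activity versus vehicle; SC150 is the concentration raising DNA binding by 50%.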
(In general: TR-FRET usually uses a lanthanide donor and a delayed reading to cut background.)

[1] abbreviates: Homo sapiens, NUGC-3, 168 h, NUGC-3 cell proliferation, 7 days, CTG, read-out: IC50.

Like-named read-outs stand apart in the source and are kept apart here.

By IC50 is commonly meant the concentration at which inhibition is half-maximal. In the case of `CN1CC[C@@H](Nc2cccc3c(CC(F)(F)F)c(C#CCNC(=O)C4CC4)nn23)[C@@H](F)C1` [Compound 135, N-[3-(7-{[(3S,4R)-3-fluoro-1-methylpiperidin-4-yl]amino}-3-(2,2,2-trifluoroethyl)pyrazolo[1,5-a]pyridin-2-yl)prop-2-yn-1-yl]cycloproplycarboxamide], in the assay with NUGC-3 cells (Homo sapiens, NUGC-3, 168 h), inhibition was half-maximal at 1670 nM (IC50). The SC150 on p53-Y220C mutant protein was 22 nM.

As for `CN1CC[C@@H](Nc2cccc3c(CC(F)(F)F)c(C#CCNC(=O)c4cnn(C5CC5)c4N)nn23)[C@@H](F)C1` [Compound 305, 5-amino-N-[3-(7-{[(3S,4R)-3-fluoro-1-methylpiperidin-4-yl]amino}-3-(2,2,2-trifluoroethyl)pyrazolo[1,5-a]pyridin-2-yl)prop-2-yn-1-yl]-1-(cyclopropyl)-1H-pyrazole-4-carboxamide], the half-maximal inhibitory concentration (IC50) in the assay on NUGC-3 cells (setting [1]) was 193 nM. At p53-Y220C mutant protein, this compound yielded an SC150 of 7 nM.

Take `COC(C)(C)Cn1ccc(C(=O)NCC#Cc2nn3c(N[C@@H]4CCN(C)C[C@@H]4F)cccc3c2CC(F)(F)F)c1` [Compound 300, N-[3-(7-{[(3S,4R)-3-fluoro-1-methylpiperidin-4-yl]amino}-3-(2,2,2-trifluoroethyl)pyrazolo[1,5-a]pyridin-2-yl)prop-2-yn-1-yl]-1-(2-methoxy-2-methylpropyl)-1H-pyrrole-3-carboxamide]: the IC50 in the assay on NUGC-3 cells (setting [1]) is 411 nM. The compound also yielded an SC150 on p53-Y220C mutant protein of 12 nM.

`CN1CC[C@@H](Nc2cccc3c(CC(F)(F)F)c(C#CCNC(=O)c4cnn(CC5CCC5)c4N)nn23)[C@@H](F)C1` [Compound 284, 5-amino-1-(cyclobutylmethyl)-N-[3-(7-{[(3S,4R)-3-fluoro-1-methylpiperidin-4-yl]amino}-3-(2,2,2-trifluoroethyl)pyrazolo[1,5-a]pyridin-2-yl)prop-2-yn-1-yl]-1H-pyrazole-4-carboxamide]: the IC50 in the assay on NUGC-3 cells (setting [1]) stood at 360 nM. The compound further yielded an SC150 on p53-Y220C mutant protein of 12 nM.

Consider `CN1CC[C@@H](Nc2cccc3c(CC(F)(F)F)c(C#CCNC(=O)c4ccc(C(C)(C)O)cc4)nn23)[C@@H](F)C1` [Compound 230, N-[3-(7-{[(3S,4R)-3-fluoro-1-methylpiperidin-4-yl]amino}-3-(2,2,2-trifluoroethyl)pyrazolo[1,5-a]pyridin-2-yl)prop-2-yn-1-yl]-4-(2-hydroxyprop-2-yl)benzamide], for which the IC50 in the assay with NUGC-3 cells (setting [1]) stood at 1060 nM. Moreover, on p53-Y220C mutant protein, the SC150 is given as 29 nM.

With `CN1CC[C@@H](Nc2cccc3c(CC(F)(F)F)c(C#CCNC(=O)c4ccc(N5CCCCC5)nc4)nn23)[C@@H](F)C1` [Compound 316, N-[3-(7-{[(3S,4R)-3-fluoro-1-methylpiperidin-4-yl]amino}-3-(2,2,2-trifluoroethyl)pyrazolo[1,5-a]pyridin-2-yl)prop-2-yn-1-yl]-6-(piperidin-1-yl)nicotinamide], in the assay on NUGC-3 cells (setting [1]), the IC50 amounted to 2160 nM. On p53-Y220C mutant protein, this compound showed an SC150 of 97 nM.

Turning to `CN1CC[C@@H](Nc2cccc3c(CC(F)(F)F)c(C#CCNC(=O)c4ccc(N5CCCC5)nc4)nn23)[C@@H](F)C1` [Compound 315, N-[3-(7-{[(3S,4R)-3-fluoro-1-methylpiperidin-4-yl]amino}-3-(2,2,2-trifluoroethyl)pyrazolo[1,5-a]pyridin-2-yl)prop-2-yn-1-yl]-6-(pyrrolidin-1-yl)nicotinamide], in the assay with NUGC-3 cells (setting [1]), the IC50 came to 1240 nM. This compound also displayed an SC150 on p53-Y220C mutant protein of 52 nM.

Turning to `CN1CC[C@@H](Nc2cccc3c(CC(F)(F)F)c(C#CCNC(=O)c4cnn(C(C)(C)CO)c4)nn23)[C@@H](F)C1` [Compound 232, N-[3-(7-{[(3S,4R)-3-fluoro-1-methylpiperidin-4-yl]amino}-3-(2,2,2-trifluoroethyl)pyrazolo[1,5-a]pyridin-2-yl)prop-2-yn-1-yl]-1-(1-hydroxy-2-methylprop-2-yl)-1H-pyrazole-4-carboxamide], the IC50 in the assay with NUGC-3 cells (setting [1]) was 419 nM. This compound also registered an SC150 on p53-Y220C mutant protein of 8 nM.

On to `[2H]C([2H])([2H])N1CC[C@@H](Nc2cccc3c(CC(F)(F)F)c(C#CCNC(=O)c4cnn(C(C)(C)C)c4N)nn23)[C@@H](F)C1` [Compound 311, 5-amino-1-(tert-butyl)-N-[3-(7-{[(3S,4R)-3-fluoro-1-(methyl-d3)piperidin-4-yl]amino}-3-(2,2,2-trifluoroethyl)pyrazolo[1,5-a]pyridin-2-yl)prop-2-yn-1-yl]-1H-pyrazole-4-carboxamide], for which the IC50 with NUGC-3 cells (setting [1]) stood at 173 nM. At p53-Y220C mutant protein, this compound gave an SC150 of 4 nM.

Regarding `CC(C1CC1)n1ncc(C(=O)NCC#Cc2nn3c(N[C@@H]4CCN(C)C[C@@H]4F)cccc3c2CC(F)(F)F)c1N` (single isomer, unassigned) [Compound 291A], in the assay on NUGC-3 cells (NUGC-3 cell proliferation, 7 days, CTG, read-out: IC50), the IC50 is 166 nM. Moreover, at p53-Y220C mutant protein, the SC150 was 3 nM.

As for `CN1CC[C@@H](Nc2cccc3c(CC(F)(F)F)c(C#CCNC(=O)c4cc(Cl)n(C)c4)nn23)[C@@H](F)C1` [Compound 326, 5-chloro-N-(3-(7-{[(3S,4R)-3-fluoro-1-methylpiperidin-4-yl]amino}-3-(2,2,2-trifluoroethyl)pyrazolo[1,5-a]pyridin-2-yl)prop-2-yn-1-yl)-1-methyl-1H-pyrrole-3-carboxamide], the IC50 in the assay on NUGC-3 cells (setting [1]) was determined as 1180 nM. This compound also returned an SC150 on p53-Y220C mutant protein of 28 nM.

As to `CCN1CC[C@@H](Nc2cccc3c(CC(F)(F)F)c(C#CCNC(=O)c4cnn(C(C)C)c4N)nn23)[C@@H](F)C1` [Compound 365, 5-amino-N-(3-(7-{[(3S,4R)-1-ethyl-3-fluoropiperidin-4-yl]amino}-3-(2,2,2-trifluoroethyl)pyrazolo[1,5-a]pyridin-2-yl)prop-2-yn-1-yl)-1-isopropyl-1H-pyrazole-4-carboxamide], in the assay with NUGC-3 cells (setting [1]), the IC50 worked out at 127 nM. In addition, the SC150 at p53-Y220C mutant protein stood at 5 nM.

Regarding `CN1CC[C@@H](Nc2cccc3c(CC(F)(F)F)c(C#CCNC(=O)c4cn(C(C)(C)C)cn4)nn23)[C@@H](F)C1` [Compound 082, 1-tert-butyl-N-[3-(7-{[(3S,4R)-3-fluoro-1-methylpiperidin-4-yl]amino}-3-(2,2,2-trifluoroethyl)pyrazolo[1,5-a]pyridin-2-yl)prop-2-yn-1-yl]-1H-imidazole-4-carboxamide], in the assay on NUGC-3 cells (setting [1]), the IC50 stood at 1090 nM. This compound also returned an SC150 at p53-Y220C mutant protein of 20 nM.

Turning to `CN1CC[C@@H](Nc2cccc3c(CC(F)(F)F)c(C#CCNC(=O)c4cccnc4)nn23)[C@@H](F)C1` [Compound 074, N-[3-(7-{[(3S,4R)-3-fluoro-1-methylpiperidin-4-yl]amino}-3-(2,2,2-trifluoroethyl)pyrazolo[1,5-a]pyridin-2-yl)prop-2-yn-1-yl]nicotinamide], the IC50 in the assay on NUGC-3 cells (setting [1]) is 1860 nM. For the same compound, the SC150 on p53-Y220C mutant protein is listed as 51 nM.

For `CN1CC[C@@H](Nc2cccc3c(CC(F)(F)F)c(C#CCNC(=O)c4cn(C)cn4)nn23)[C@@H](F)C1` [Compound 319, N-[3-(7-{[(3S,4R)-3-fluoro-1-methylpiperidin-4-yl]amino}-3-(2,2,2-trifluoroethyl)pyrazolo[1,5-a]pyridin-2-yl)prop-2-yn-1-yl]-1-methyl-1H-imidazole-4-carboxamide], in the assay with NUGC-3 cells (setting [1]), the IC50 is 1370 nM. The SC150 at p53-Y220C mutant protein was determined as 41 nM.

With `CC(C)n1cnc(C(=O)NCC#Cc2nn3c(N[C@@H]4CCN(C)C[C@@H]4F)cccc3c2CC(F)(F)F)c1` [Compound 320, N-[3-(7-{[(3S,4R)-3-fluoro-1-methylpiperidin-4-yl]amino}-3-(2,2,2-trifluoroethyl)pyrazolo[1,5-a]pyridin-2-yl)prop-2-yn-1-yl]-1-isopropyl-1H-imidazole-4-carboxamide], in the assay with NUGC-3 cells (setting [1]), the IC50 was determined as 1560 nM. Also, the SC150 at p53-Y220C mutant protein stood at 28 nM.

Turning to `CC(C1CC1)n1ncc(C(=O)NCC#Cc2nn3c(N[C@@H]4CCN(C)C[C@@H]4F)cccc3c2CC(F)(F)F)c1N` (stereo partly drawn) [Compound 291, 5-amino-1-(1-cyclopropylethyl)-N-[3-(7-{[(3S,4R)-3-fluoro-1-methylpiperidin-4-yl]amino}-3-(2,2,2-trifluoroethyl)pyrazolo[1,5-a]pyridin-2-yl)prop-2-yn-1-yl]-1H-pyrazole-4-carboxamide], the IC50 in the assay on NUGC-3 cells (setting [1]) turned out to be 249 nM. For the same compound, the SC150 on p53-Y220C mutant protein is 7 nM.

In the case of `CN1CC[C@@H](Nc2cccc3c(CC(F)(F)F)c(C#CCNC(=O)c4ccc(C(C)(C)O)nc4)nn23)[C@@H](F)C1` [Compound 236, N-[3-(7-{[(3S,4R)-3-fluoro-1-methylpiperidin-4-yl]amino}-3-(2,2,2-trifluoroethyl)pyrazolo[1,5-a]pyridin-2-yl)prop-2-yn-1-yl]-6-(2-hydroxyprop-2-yl)pyridine-3-carboxamide], in the assay on NUGC-3 cells (setting [1]), the IC50 is 1280 nM. Further, the SC150 on p53-Y220C mutant protein is 22 nM.
